Measurements: PubChem BioAssay AID1963844 (Molecular Pharmacology Branch, DTP, NCI, 2024)
pIC50: −log10 of the molar value.

Test system: 422866-222-R5-J1-PDC complex spheroid viability
Experiment: Anticancer human tumor 422866-222-R5-J1-PDC patient-derived pancreatic adenocarcinoma cell line growth inhibition [POLQ]
Settings: for pIC50: curve of first compound; for viability, T/C: stronger effect = lower value
Outline: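 Three-cell-type spheroids modelling solid tumor plus stroma served as the readout system; POL inhibitors were tested individually and in combination, concentration ranges set by clinical Cmax where known.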

[1] = second compound 0.0316 µM, first compound 0.0316 µM
[2] = second compound 0.0316 µM, first compound 0.1 µM
[3] = second compound 0.0316 µM, first compound 0.316 µM
[4] = second compound 0.0316 µM, first compound 1 µM
[5] = second compound 0.0316 µM, first compound 3.16 µM
[6] = second compound 0.0316 µM, first compound 10 µM
[7] = second compound 0.1 µM, first compound 0.0316 µM
[8] = second compound 0.1 µM, first compound 0.1 µM
[9] = second compound 0.1 µM, first compound 0.316 µM
[10] = second compound 0.1 µM, first compound 1 µM
[11] = second compound 0.1 µM, first compound 3.16 µM
[12] = second compound 0.1 µM, first compound 10 µM
[13] = second compound 0.316 µM, first compound 0.0316 µM
[14] = second compound 0.316 µM, first compound 0.1 µM
[15] = second compound 0.316 µM, first compound 0.316 µM
[16] = second compound 0.316 µM, first compound 1 µM
[17] = second compound 0.316 µM, first compound 3.16 µM
[18] = second compound 0.316 µM, first compound 10 µM
[19] = second compound 1 µM, first compound 0.0316 µM
[20] = second compound 1 µM, first compound 0.1 µM
[21] = second compound 1 µM, first compound 0.316 µM
[22] = second compound 1 µM, first compound 1 µM
[23] = second compound 1 µM, first compound 3.16 µM
[24] = second compound 1 µM, first compound 10 µM
[25] = second compound 3.16 µM, first compound 0.0316 µM
[26] = second compound 3.16 µM, first compound 0.1 µM
[27] = second compound 3.16 µM, first compound 0.316 µM
[28] = second compound 3.16 µM, first compound 1 µM
[29] = second compound 3.16 µM, first compound 3.16 µM
[30] = second compound 3.16 µM, first compound 10 µM
[31] = second compound 10 µM, first compound 0.0316 µM
[32] = second compound 10 µM, first compound 0.1 µM
[33] = second compound 10 µM, first compound 0.316 µM
[34] = second compound 10 µM, first compound 1 µM
[35] = second compound 10 µM, first compound 3.16 µM
[36] = second compound 10 µM, first compound 10 µM
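Further: spheroids exposed to compounds for one week before readout.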
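Wherever viability, T/C is given: percent of DMSO vehicle wells luminescence so 100% = untreated viability.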

Structure (SMILES): C#Cc1c(F)ccc2cc(O)cc(-c3ncc4c(N5CC6CCC(C5)N6)nc(OCC56CCCN5CC(F)C6)nc4c3F)c12 (centres undefined) + Nc1ccc(C#CCN(C(=O)Cc2ncc(C(F)(F)F)cc2C(F)(F)F)c2ccc(F)cc2)nn1
- pIC50 (second compound 0.0316 µM): 6.13
- pIC50 (second compound 0.1 µM): 6.14
- pIC50 (second compound 0.316 µM): 6.09
- pIC50 (second compound 1 µM): 6.12
- pIC50 (second compound 3.16 µM): 6.19
- pIC50 (second compound 10 µM): 6.21
- viability, T/C [1]: 95.4%
- viability, T/C [2]: 103%
- viability, T/C [3]: 62.8%
- viability, T/C [4]: 48.7%
- viability, T/C [5]: 26.8%
- viability, T/C [6]: 26%
- viability, T/C [7]: 101%
- viability, T/C [8]: 71.5%
- viability, T/C [9]: 67.6%
- viability, T/C [10]: 43.4%
- viability, T/C [11]: 32.1%
- viability, T/C [12]: 21.7%
- viability, T/C [13]: 88.2%
- viability, T/C [14]: 78.4%
- viability, T/C [15]: 66.2%
- viability, T/C [16]: 44.3%
- viability, T/C [17]: 37.1%
- viability, T/C [18]: 27.9%
- viability, T/C [19]: 102%
- viability, T/C [20]: 89.4%
- viability, T/C [21]: 67.4%
- viability, T/C [22]: 44.3%
- viability, T/C [23]: 30.6%
- viability, T/C [24]: 26%
- viability, T/C [25]: 93.1%
- viability, T/C [26]: 93%
- viability, T/C [27]: 57%
- viability, T/C [28]: 48.2%
- viability, T/C [29]: 26.6%
- viability, T/C [30]: 27.9%
- viability, T/C [31]: 89.6%
- viability, T/C [32]: 92.2%
- viability, T/C [33]: 62.3%
- viability, T/C [34]: 41.7%
- viability, T/C [35]: 35.3%
- viability, T/C [36]: 27.7%

Structure (SMILES): COc1ccc([C@@H](O)c2cc(-c3ncnc4cc(N5CCOCC5)ccc34)c(F)cc2Cl)nn1 + Nc1ccc(C#CCN(C(=O)Cc2ncc(C(F)(F)F)cc2C(F)(F)F)c2ccc(F)cc2)nn1
- pIC50 (second compound 0.0316 µM): 5.82
- pIC50 (second compound 0.1 µM): 5.59
- pIC50 (second compound 0.316 µM): 5.56
- pIC50 (second compound 1 µM): 5.71
- pIC50 (second compound 3.16 µM): 5.89
- pIC50 (second compound 10 µM): 5.80
- viability, T/C [1]: 81.2%
- viability, T/C [2]: 89.7%
- viability, T/C [3]: 70.9%
- viability, T/C [4]: 55.3%
- viability, T/C [5]: 42.4%
- viability, T/C [6]: 34.8%
- viability, T/C [7]: 104%
- viability, T/C [8]: 81.8%
- viability, T/C [9]: 75.1%
- viability, T/C [10]: 59.8%
- viability, T/C [11]: 46.2%
- viability, T/C [12]: 39.2%
- viability, T/C [13]: 110%
- viability, T/C [14]: 88.5%
- viability, T/C [15]: 73.1%
- viability, T/C [16]: 70.6%
- viability, T/C [17]: 46.2%
- viability, T/C [18]: 33.1%
- viability, T/C [19]: 94.2%
- viability, T/C [20]: 87.4%
- viability, T/C [21]: 79.8%
- viability, T/C [22]: 62.6%
- viability, T/C [23]: 40.2%
- viability, T/C [24]: 29.4%
- viability, T/C [25]: 95.9%
- viability, T/C [26]: 89.9%
- viability, T/C [27]: 72.9%
- viability, T/C [28]: 49.1%
- viability, T/C [29]: 47.6%
- viability, T/C [30]: 34.6%
- viability, T/C [31]: 110%
- viability, T/C [32]: 100%
- viability, T/C [33]: 82.5%
- viability, T/C [34]: 60.3%
- viability, T/C [35]: 35.1%
- viability, T/C [36]: 31.4%
